Laboratory results published in publication PMC6207370 (Xenobiotica; the fate of foreign compounds in biological …, 2017).
Where two headings read alike, the source gives them in different places. Marks after values point to notes of the source that are not given here.

Tests used:
[1] = Incubations with rhesus monkey hepatic S9; settings: rhesus monkey hepatic S9; for Fm,AO Method A (fraction metabolized by AO): method A (eq. 4); for Fm,AO Method B (fraction metabolized by AO): method B (eq. 5), values > 1 assumed equal to 1
[2] = Incubations with guinea pig hepatic S9; settings: guinea pig hepatic S9; for Fm,AO Method A (fraction metabolized by AO): method A (eq. 4); for Fm,AO Method B (fraction metabolized by AO): method B (eq. 5), values > 1 assumed equal to 1
[3] = Incubations with minipig hepatic S9; settings: for CLint scaled at 1 μM: male, Gottingen, minipig, Table 1, triplicate, 2–3 experiments; for Fm,AO Method A (fraction metabolized by AO): method A (eq. 4); for Fm,AO Method B (fraction metabolized by AO): method B (eq. 5), values > 1 assumed equal to 1
[4] = Incubations with human hepatic S9; settings: for CLint scaled at 1 μM: both, human; for Fm,AO Method A (fraction metabolized by AO) / Fm,AO Method B (fraction metabolized by AO) / Fm,AO (fraction metabolized by AO): human hepatic S9; for Fm,AO Method A (fraction metabolized by AO): method A (eq. 4); for Fm,AO Method B (fraction metabolized by AO): method B (eq. 5), values > 1 assumed equal to 1; for Fm,AO (fraction metabolized by AO): methods A and B taken together (data from Table 3)
[5] = assay type: in vitro ADME
[6] = Incubations with mouse hepatic S9; settings: for CLint scaled at 1 μM: male, CD-1, mouse, Table 1, triplicate, 2–3 experiments; for Fm,AO Method A (fraction metabolized by AO): method A (eq. 4); for Fm,AO Method B (fraction metabolized by AO): method B (eq. 5), values > 1 assumed equal to 1
[7] = Incubations with rat hepatic S9; settings: for CLint scaled at 1 μM: male, Sprague-Dawley, Table 1, triplicate, 2–3 experiments; for CLint scaled at 1 μM / CLHEP (hepatic clearance): rat; for CLHEP (hepatic clearance): well-stirred model from S9 CLint (+NADPH), uncorrected for fraction unbound
[8] = Incubations with cynomolgus monkey hepatic S9; settings: cynomolgus monkey hepatic S9; for Fm,AO Method A (fraction metabolized by AO): method A (eq. 4); for Fm,AO Method B (fraction metabolized by AO): method B (eq. 5), values > 1 assumed equal to 1
[9] = mouse; ref Dalvie D, Zhang C, Chen W, et al. (2010); cited from earlier work
[10] = rat; ref Dalvie D, Zhang C, Chen W, et al. (2010); cited from earlier work
[11] = cynomolgus monkey; ref Dalvie D, Zhang C, Chen W, et al. (2010); cited from earlier work
Allometric scaling = assay: Allometric scaling; design: species or system human; settings: exponent 0.75

Row | Structure (SMILES) | Fm,AO Method A (fraction metabolized by AO) [1] | Fm,AO Method B (fraction metabolized by AO) [1] | Fm,AO Method A (fraction metabolized by AO) [2] | Fm,AO Method B (fraction metabolized by AO) [2] | Fm,AO Method A (fraction metabolized by AO) ([3]; minipig hepatic S9) | Fm,AO Method B (fraction metabolized by AO) ([3]; minipig hepatic S9) | Fm,AO Method A (fraction metabolized by AO) [4] | Fm,AO Method B (fraction metabolized by AO) [4] | Fm,AO (fraction metabolized by AO) [4] | Fm,AO Method A (fraction metabolized by AO) ([6]; mouse hepatic S9) | Fm,AO Method B (fraction metabolized by AO) ([6]; mouse hepatic S9) | CLHEP (hepatic clearance) [7] [mL/min/kg] | Fm,AO Method A (fraction metabolized by AO) [8] | Fm,AO Method B (fraction metabolized by AO) [8] | further results
1 | CCN(C(C)=O)c1cccc(-c2ccnc3c(C#N)cnn23)c1 [Zaleplon, zaleplon] | 0.42 | 0.65 | 1 | 0.50 | 0.17 | 0 | 1 | 0.71 | ≥ 0.71 | 0.22 | 0 | 12.7 ± 2.10 | 1 | 0.70 | CLint scaled at 1 μM ([3]; s9, pH 7.4, CLint (intrinsic clearance) in hepatic S9, minipig hepatic S9, in the presence of NADPH): 5.55 ± 1.34 mL/min/kg; Fm,AO (fraction metabolized by AO) ([3]; minipig hepatic S9, methods A and B taken together): ≤ 0.17; CLint scaled at 1 μM ([4]; s9, pH 7.4, CLint (intrinsic clearance) in hepatic S9, human hepatic S9, in the presence of NADPH, Table 1, triplicate, 2–3 experiments): 5.8 ± 1.02 mL/min/kg; CLint scaled at 1 μM ([4]; s9, pH 7.4, CLint −NADPH, human hepatic S9 without NADPH): 3.96 ± 1.35 mL/min/kg; Fm,AO, across species ([5]; cynomolgus monkey, rhesus monkey, and guinea pig S9): 0.42–0.70; Fm,AO, across species ([5]; mouse and minipig S9): ≤ 0.22; CLint scaled at 1 μM ([6]; s9, pH 7.4, CLint (intrinsic clearance) in hepatic S9, mouse hepatic S9, in the presence of NADPH): 24.4 ± 5.28 mL/min/kg; CLint scaled at 1 μM ([7]; s9, pH 7.4, CLint (intrinsic clearance) in hepatic S9, rat hepatic S9, in the presence of NADPH): 15.6 ± 3.05 mL/min/kg
2 | N=C(N)NC(=O)c1cnn(-c2cccc3ncccc23)c1C1CC1 [Zoniporide] | 0.77 | 1^# | 0.84 | 0.97 | 0.83 | 0.97 | 0.77 | 0.72 | 0.72–0.77 | 0.90 | 0.90 | 60.8 ± 0.485 | 0.90 | 1 | CLp (plasma clearance) [9]: 298^§ mL/min/kg; CLp (plasma clearance) [10]: 237^§ mL/min/kg; SSS Human Predicted CLp (Single-species scaling; single-species scaling from literature cynomolgus monkey CLp): 15.2 mL/min/kg; SSS Human Predicted CLp (Single-species scaling; single-species scaling from literature mouse CLp): 39.2 mL/min/kg; SSS Human Predicted CLp (Single-species scaling; single-species scaling from literature rat CLp): 62.7 mL/min/kg; CLint scaled at 1 μM ([3]; hepatic S9, pH 7.4, CLint (intrinsic clearance) in hepatic S9, minipig hepatic S9, in the presence of NADPH): 23.4 ± 2.07 mL/min/kg; CLint scaled at 1 μM ([4]; hepatic S9, pH 7.4, CLint (intrinsic clearance) in hepatic S9, human hepatic S9, in the presence of NADPH, Table 1, triplicate, 2–3 experiments): 17.9 ± 1.77 mL/min/kg; CLint scaled at 1 μM ([4]; hepatic S9, pH 7.4, CLint −NADPH, human hepatic S9 without NADPH): 17.1 ± 1.53 mL/min/kg; Fm,AO, across species ([5]; all species): > 0.70; CLp (plasma clearance) [11]: 31^§ mL/min/kg; CLint scaled at 1 μM ([6]; hepatic S9, pH 7.4, CLint (intrinsic clearance) in hepatic S9, mouse hepatic S9, in the presence of NADPH): 332 ± 11.3 mL/min/kg; Fm,AO (fraction metabolized by AO) ([6]; mouse hepatic S9, methods A and B taken together (data from Table 3)): 0.90; SSS Human Predicted S9 CLint (Allometric scaling; single-species scaling from cynomolgus monkey S9 CLint): 30.7 mL/min/kg; SSS Human Predicted S9 CLint (Allometric scaling; single-species scaling from mouse S9 CLint): 43.1 mL/min/kg; SSS Human Predicted S9 CLint (Allometric scaling; single-species scaling from rat S9 CLint): 114 mL/min/kg; CLint scaled at 1 μM ([7]; hepatic S9, pH 7.4, CLint (intrinsic clearance) in hepatic S9, rat hepatic S9, in the presence of NADPH): 466 ± 27 mL/min/kg; Fm,AO Method A (fraction metabolized by AO) ([7]; rat hepatic S9, method A (eq. 4)): 0.74; Fm,AO Method B (fraction metabolized by AO) ([7]; rat hepatic S9, method B (eq. 5), values > 1 assumed equal to 1): 0.72; Fm,AO (fraction metabolized by AO) ([7]; rat hepatic S9, methods A and B taken together (data from Table 3)): 0.72–0.74; Fm,AO (fraction metabolized by AO) ([8]; methods A and B taken together (data from Table 3)): ≥ 0.90
